Source: the supplement of paper PMC10307832

What was measured:
Assay in all cases: relative viability (nuclei count vs DMSO), 5 days (fraction); higher = more cells survive
[1] = test system: NCI-H3122
How it was run: (§1)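 One day after seeding in 1536-well plates, lung cancer cell lines were dosed by pin tool. Dosing was either single-drug or a fixed anchor-drug dose plus five library-drug doses (not always all listed) in √10 steps. After 5 days, nuclei were stained in one fix-and-stain step and counted on 4× images, and relative viability is the nuclei count of treated wells over that of vehicle wells, given as the median of duplicate plates.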

[2] = test system: NCI-H2405
How it was run: as §1

[3] = test system: NCI-H647
How it was run: as §1

[4] = test system: PC-14
How it was run: as §1

[5] = test system: HCC-15
How it was run: as §1

[6] = test system: NCI-H1793
How it was run: as §1

[7] = test system: EPLC-272H
How it was run: as §1

[8] = test system: LOU-NH91
How it was run: as §1

[9] = test system: NCI-H322M
How it was run: as §1

[10] = test system: H3255
How it was run: as §1

[11] = test system: NCI-H2023
How it was run: as §1

[12] = test system: COR-L23
How it was run: as §1

[13] = test system: NCI-H441
How it was run: as §1

[14] = test system: 201T
How it was run: as §1

[15] = test system: UMC-11
How it was run: as §1

[16] = test system: NCI-H520
How it was run: as §1

[17] = test system: NCI-H2347
How it was run: as §1

[18] = test system: NCI-H1734
How it was run: as §1

[19] = test system: SW 900
How it was run: as §1

[20] = test system: NCI-H1650
How it was run: as §1

[21] = test system: NCI-H2170
How it was run: as §1

Q: Which results are given for `COc1cc2nccc(Oc3ccc(NC(=O)Nc4cc(C)on4)c(Cl)c3)c2cc1OC` [Tivozanib] + Cc1cc(Nc2cc(N3CCN(C)CC3)nc(Sc3ccc(NC(=O)C4CC4)cc3)n2)n[nH]1 [Tozasertib] (partner 0.1 µM)?
A: relative viability ([1]; first compound 0.005 µM): 0.418; relative viability ([1]; first compound 0.01581 µM): 0.428; relative viability ([1]; first compound 0.05 µM): 0.468; relative viability ([1]; first compound 0.1581 µM): 0.586; relative viability ([1]; first compound 0.5 µM): 0.253; relative viability ([2]; first compound 0.005 µM): 0.676; relative viability ([2]; first compound 0.01581 µM): 0.753; relative viability ([2]; first compound 0.05 µM): 0.841; relative viability ([2]; first compound 0.1581 µM): 0.879; relative viability ([2]; first compound 0.5 µM): 0.711; relative viability ([3]; first compound 0.005 µM): 0.269; relative viability ([3]; first compound 0.01581 µM): 0.203; relative viability ([3]; first compound 0.05 µM): 0.263; relative viability ([3]; first compound 0.1581 µM): 0.332; relative viability ([3]; first compound 0.5 µM): 0.302; relative viability ([4]; first compound 0.005 µM): 0.566; relative viability ([4]; first compound 0.01581 µM): 0.647; relative viability ([4]; first compound 0.05 µM): 0.55; relative viability ([4]; first compound 0.1581 µM): 0.615; relative viability ([4]; first compound 0.5 µM): 0.507; relative viability ([5]; first compound 0.005 µM): 0.411; relative viability ([5]; first compound 0.01581 µM): 0.419; relative viability ([5]; first compound 0.05 µM): 0.496; relative viability ([5]; first compound 0.1581 µM): 0.415; relative viability ([5]; first compound 0.5 µM): 0.354; relative viability ([6]; first compound 0.005 µM): 0.335; relative viability ([6]; first compound 0.01581 µM): 0.45; relative viability ([6]; first compound 0.05 µM): 0.392; relative viability ([6]; first compound 0.1581 µM): 0.376; relative viability ([6]; first compound 0.5 µM): 0.359; relative viability ([7]; first compound 0.005 µM): 0.195; relative viability ([7]; first compound 0.01581 µM): 0.255; relative viability ([7]; first compound 0.05 µM): 0.387; relative viability ([7]; first compound 0.1581 µM): 0.224; relative viability ([7]; first compound 0.5 µM): 0.275; relative viability ([8]; first compound 0.005 µM): 0.644; relative viability ([8]; first compound 0.01581 µM): 0.669; relative viability ([8]; first compound 0.05 µM): 0.775; relative viability ([8]; first compound 0.1581 µM): 0.759; relative viability ([8]; first compound 0.5 µM): 0.659; relative viability ([9]; first compound 0.005 µM): 0.455; relative viability ([9]; first compound 0.01581 µM): 0.48; relative viability ([9]; first compound 0.05 µM): 0.518; relative viability ([9]; first compound 0.1581 µM): 0.395; relative viability ([9]; first compound 0.5 µM): 0.479; relative viability ([10]; first compound 0.005 µM): 0.745; relative viability ([10]; first compound 0.01581 µM): 0.564; relative viability ([10]; first compound 0.05 µM): 0.626; relative viability ([10]; first compound 0.1581 µM): 0.804; relative viability ([10]; first compound 0.5 µM): 0.565; relative viability ([11]; first compound 0.005 µM): 0.306; relative viability ([11]; first compound 0.01581 µM): 0.324; relative viability ([11]; first compound 0.05 µM): 0.405; relative viability ([11]; first compound 0.1581 µM): 0.4; relative viability ([11]; first compound 0.5 µM): 0.413; relative viability ([12]; first compound 0.005 µM): 0.172; relative viability ([12]; first compound 0.01581 µM): 0.218; relative viability ([12]; first compound 0.05 µM): 0.363; relative viability ([12]; first compound 0.1581 µM): 0.268; relative viability ([12]; first compound 0.5 µM): 0.228; relative viability ([13]; first compound 0.005 µM): 0.682; relative viability ([13]; first compound 0.01581 µM): 0.635; relative viability ([13]; first compound 0.05 µM): 0.596; relative viability ([13]; first compound 0.1581 µM): 0.768; relative viability ([13]; first compound 0.5 µM): 0.474; relative viability ([14]; first compound 0.005 µM): 0.974; relative viability ([14]; first compound 0.01581 µM): 0.959; relative viability ([14]; first compound 0.05 µM): 0.981; relative viability ([14]; first compound 0.1581 µM): 0.985; relative viability ([14]; first compound 0.5 µM): 0.996; relative viability ([15]; first compound 0.005 µM): 0.208; relative viability ([15]; first compound 0.01581 µM): 0.2; relative viability ([15]; first compound 0.05 µM): 0.198; relative viability ([15]; first compound 0.5 µM): 0.211; relative viability ([16]; first compound 0.005 µM): 0.402; relative viability ([16]; first compound 0.01581 µM): 0.373; relative viability ([16]; first compound 0.05 µM): 0.446; relative viability ([16]; first compound 0.1581 µM): 0.444; relative viability ([16]; first compound 0.5 µM): 0.433; relative viability ([17]; first compound 0.01581 µM): 0.54; relative viability ([17]; first compound 0.05 µM): 0.594; relative viability ([17]; first compound 0.5 µM): 0.511; relative viability ([18]; first compound 0.005 µM): 0.24; relative viability ([18]; first compound 0.01581 µM): 0.258; relative viability ([18]; first compound 0.05 µM): 0.26; relative viability ([18]; first compound 0.1581 µM): 0.275; relative viability ([18]; first compound 0.5 µM): 0.252; relative viability ([19]; first compound 0.005 µM): 0.624; relative viability ([19]; first compound 0.01581 µM): 0.626; relative viability ([19]; first compound 0.05 µM): 0.606; relative viability ([19]; first compound 0.1581 µM): 0.637; relative viability ([19]; first compound 0.5 µM): 0.565; relative viability ([20]; first compound 0.005 µM): 0.445; relative viability ([20]; first compound 0.01581 µM): 0.436; relative viability ([20]; first compound 0.05 µM): 0.421; relative viability ([20]; first compound 0.1581 µM): 0.349; relative viability ([20]; first compound 0.5 µM): 0.422; relative viability ([21]; first compound 0.005 µM): 0.673; relative viability ([21]; first compound 0.01581 µM): 0.685; relative viability ([21]; first compound 0.05 µM): 0.801; relative viability ([21]; first compound 0.1581 µM): 0.671; relative viability ([21]; first compound 0.5 µM): 0.784
